target: His-tagged N-terminal ATP binding domain (amino acid residues 9-236) of HSP90α (Homo sapiens, UniProt P07900); assay: HSP90 inhibitor binding potency: TRF competition binding assay; settings: Table II; read-out: Hsp90 IC50 Range
Method in brief: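 His-tagged HSP90α N-domain (residues 9-236) incubated 2 h at room temperature with biotinylated radicicol and increasing compound in 50 mM HEPES, 6 mM MgCl2, 20 mM KCl, 0.1% BSA. Bound tracer captured on streptavidin plates, detected with europium anti-His antibody by time-resolved fluorescence; IC50 derived.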

| SMILES | IC50 |
| --- | --- |
| COc1cccc(-c2ccccc2C2CC(=O)c3c(nc(N)nc3C(F)(F)F)C2)n1 (centres unmarked) [Compound 216, 2-amino-7-[2-(6-methoxy-pyridin-2-yl)-phenyl]-4-trifluoromethyl-7,8-dihydro-6H-quinazolin-5-one] | < 1000 nM |
| Cc1nc(N)nc2c1C(=O)CC(c1c(F)cccc1-c1cccnc1F)C2 (centres unmarked) [Compound 217, 2-amino-7-[2-fluoro-6-(2-fluoro-pyridin-3-yl)-phenyl]-4-methyl-7,8-dihydro-6H-quinazolin-5-one] | < 1000 nM |
| Cc1nc(N)nc2c1C(=O)CC(c1c(F)cccc1-c1cncnc1)C2 (centres unmarked) [Compound 218, 2-amino-7-(2-fluoro-6-pyrimidin-5-yl-phenyl)-4-methyl-7,8-dihydro-6H-quinazolin-5-one] | < 1000 nM |
| Cc1nc(N)nc2c1C(=O)CC(c1ccc(F)cc1-c1cncc(Cl)n1)C2 (centres unmarked) [Compound 219, 2-amino-7-[2-(6-chloro-pyrazin-2-yl)-4-fluoro-phenyl]-4-methyl-7,8-dihydro-6H-quinazolin-5-one] | < 1000 nM |
| COc1cccc(-c2cccc(F)c2C2CC(=O)c3c(C)nc(N)nc3C2)n1 (centres unmarked) [Compound 220, 2-amino-7-[2-fluoro-6-(6-methoxy-pyridin-2-yl)-phenyl]-4-methyl-7,8-dihydro-6H-quinazolin-5-one] | < 1000 nM |
| COc1cncc(-c2cc(F)ccc2C2CC(=O)c3c(C)nc(N)nc3C2)n1 (centres unmarked) [Compound 221, 2-amino-7-[4-fluoro-2-(6-methoxy-pyrazin-2-yl)-phenyl]-4-methyl-7,8-dihydro-6H-quinazolin-5-one] | < 1000 nM |
| Cc1nc(N)nc2c1C(=O)CC(c1cccc(F)c1-c1cccnc1F)C2 (centres unmarked) [Compound 222, 2-amino-7-[3-fluoro-2-(2-fluoro-pyridin-3-yl)-phenyl]-4-methyl-7,8-dihydro-6H-quinazolin-5-one] | < 1000 nM |
| Cc1nc(N)nc2c1C(=O)CC(c1ccc(F)cc1-c1cccc(Cl)n1)C2 (centres unmarked) [Compound 223, 2-amino-7-[2-(6-chloro-pyridin-2-yl)-4-fluoro-phenyl]-4-methyl-7,8-dihydro-6H-quinazolin-5-one] | < 1000 nM |
| COc1nc(-c2cc(F)ccc2C2CC(=O)c3c(C)nc(N)nc3C2)ncc1F (centres unmarked) [Compound 224, 2-amino-7-[4-fluoro-2-(5-fluoro-4-methoxy-pyrimidin-2-yl)-phenyl]-4-methyl-7,8-dihydro-6H-quinazolin-5-one] | < 1000 nM |
| COc1cncc(-c2cc(F)ccc2[C@H]2CC(=O)c3c(C)nc(N)nc3C2)n1 [Compound 225, (R)-2-amino-7-[4-fluoro-2-(6-methoxy-pyrazin-2-yl)-phenyl]-4-methyl-7,8-dihydro-6H-quinazolin-5-one] | 1000 to 10000 nM |
| COc1cncc(-c2cc(F)ccc2[C@@H]2CC(=O)c3c(C)nc(N)nc3C2)n1 [Compound 226, (S)-2-amino-7-[4-fluoro-2-(6-methoxy-pyrazin-2-yl)-phenyl]-4-methyl-7,8-dihydro-6H-quinazolin-5-one] | < 1000 nM |
| Cc1cnc(C)c(-c2cc(F)ccc2C2CC(=O)c3c(C)nc(N)nc3C2)n1 (centres unmarked) [Compound 227, 2-amino-7-[2-(3,6-dimethyl-pyrazin-2-yl)-4-fluoro-phenyl]-4-methyl-7,8-dihydro-6H-quinazolin-5-one] | 1000 to 10000 nM |
| Cc1nc(N)nc2c1C(=O)CC(c1ccc(F)cc1-c1nccnc1Cl)C2 (centres unmarked) [Compound 228, 2-amino-7-[2-(3-chloro-pyrazin-2-yl)-4-fluoro-phenyl]-4-methyl-7,8-dihydro-6H-quinazolin-5-one] | 1000 to 10000 nM |
| COc1nc(-c2cc(F)ccc2[C@H]2CC(=O)c3c(C)nc(N)nc3C2)ncc1F [Compound 229, (R)-2-amino-7-[4-fluoro-2-(5-fluoro-4-methoxy-pyrimidin-2-yl)-phenyl]-4-methyl-7,8-dihydro-6H-quinazolin-5-one] | 1000 to 10000 nM |
| COc1nc(-c2cc(F)ccc2[C@@H]2CC(=O)c3c(C)nc(N)nc3C2)ncc1F [Compound 230, (S)-2-amino-7-[4-fluoro-2-(5-fluoro-4-methoxy-pyrimidin-2-yl)-phenyl]-4-methyl-7,8-dihydro-6H-quinazolin-5-one] | < 1000 nM |
| Cc1nc(N)nc2c1C(=O)CC(c1ccc(F)cc1-c1nccnc1F)C2 (centres unmarked) [Compound 231, 2-amino-7-[4-fluoro-2-(3-fluoro-pyrazin-2-yl)-phenyl]-4-methyl-7,8-dihydro-6H-quinazolin-5-one] | < 1000 nM |
| COc1nc(-c2cc(F)ccc2C2CC(=O)c3c(C)nc(N)nc3C2)cnc1N (centres unmarked) [Compound 232, 2-amino-7-[2-(5-amino-6-methoxy-pyrazin-2-yl)-4-fluoro-phenyl]-4-methyl-7,8-dihydro-6H-quinazolin-5-one] | < 1000 nM |
| COc1nc(-c2cc(F)ccc2C2CC(=O)c3c(C)nc(N)nc3C2)cnc1F (centres unmarked) [Compound 233, 2-amino-7-[4-fluoro-2-(5-fluoro-6-methoxy-pyrazin-2-yl)-phenyl]-4-methyl-7,8-dihydro-6H-quinazolin-5-one] | < 1000 nM |
| Cc1nc(N)nc2c1C(=O)CC(c1ncc[nH]1)C2 (centres unmarked) [Compound 234, 2-amino-7-(1H-imidazol-2-yl)-4-methyl-7,8-dihydro-6H-quinazolin-5-one] | > 10000 nM |
| COc1cccc(-c2ccccc2C2CC(=O)c3c(C)nc(N)nc3C2)c1F (centres unmarked) [Compound 235, 2-amino-7-(2′-fluoro-3′-methoxy-biphenyl-2-yl)-4-methyl-7,8-dihydro-6H-quinazolin-5-one] | 1000 to 10000 nM |
| Cc1nc(N)nc2c1C(=O)CC(c1c(F)cccc1Br)C2 (centres unmarked) [Compound 236, 2-amino-7-(2-bromo-6-fluoro-phenyl)-4-methyl-7,8-dihydro-6H-quinazolin-5-one] | 1000 to 10000 nM |
| Cc1nc(N)nc2c1C(=O)CC(c1cccc(F)c1Br)C2 (centres unmarked) [Compound 237, 2-amino-7-(2-bromo-3-fluoro-phenyl)-4-methyl-7,8-dihydro-6H-quinazolin-5-one] | 1000 to 10000 nM |
| Cc1nc(N)nc2c1C(=O)CC(c1cc(F)ccc1Br)C2 (centres unmarked) [Compound 238, 2-amino-7-(2-bromo-5-fluoro-phenyl)-4-methyl-7,8-dihydro-6H-quinazolin-5-one] | 1000 to 10000 nM |
| COc1ccc(Br)c(C2CC(=O)c3c(C)nc(N)nc3C2)c1 (centres unmarked) [Compound 239, 2-amino-7-(2-bromo-5-methoxy-phenyl)-4-methyl-7,8-dihydro-6H-quinazolin-5-one] | 1000 to 10000 nM |
| COc1cncc(-c2cccc(F)c2C2CC(=O)c3c(C)nc(N)nc3C2)n1 (centres unmarked) [Compound 240, 2-amino-7-[2-fluoro-6-(6-methoxy-pyrazin-2-yl)-phenyl]-4-methyl-7,8-dihydro-6H-quinazolin-5-one] | 1000 to 10000 nM |
| Cc1nc(N)nc2c1C(=O)C(NC(=O)c1ccccc1)C(c1ccccc1)C2 (centres unmarked) [Compound 241, N-(2-amino-4-methyl-5-oxo-7-phenyl-5,6,7,8-tetrahydro-quinazolin-6-yl)-benzamide] | > 10000 nM |
| Cc1nc(N)nc2c1C(=O)CC(c1ccccc1)C2NC(=O)c1ccccc1 (centres unmarked) [Compound 242, N-(2-amino-4-methyl-5-oxo-7-phenyl-5,6,7,8-tetrahydro-quinazolin-8-yl)-benzamide] | > 10000 nM |
| Nc1ncc2c(n1)CC(c1ccccc1-c1cccnc1F)CC2=O (centres unmarked) [Compound 243, 2-amino-7-[2-(2-fluoro-pyridin-3-yl)-phenyl]-7,8-dihydro-6H-quinazolin-5-one] | < 1000 nM |
| Nc1ncc2c(n1)CC(c1ccccc1Br)CC2=O (centres unmarked) [Compound 244, 2-amino-7-(2-bromo-phenyl)-7,8-dihydro-6H-quinazolin-5-one] | > 10000 nM |

Source: patent US20070027150A1 (priority 2005, published 2007)
